Source: PubChem BioAssay AID330 (DTP/NCI, 2004)
“And” between values parts separate entries of the source, which are not always exact repeats. Equal entries are not always repeated. Toxic doses and inconclusive results are not listed.

System: P388 leukemia ip, CD2F1 mice, survival T/C
Assay: NCI In Vivo Anticancer Drug Screen. Data for tumor model P388 Leukemia (intraperitoneal) in CD2F1 (CDF1) mice
Conditions: endpoint: median survival time, higher = longer survival
Method in brief: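 Mice carrying the transplanted tumor received test compound or vehicle. Survival was recorded in each group, and the value is the treated-group measurement divided by that of the vehicle-treated control group.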

[1] = dose: 50.0 mg/kg/injection, schedule: Q01DX005 (ip), vehicle: saline with Tween-80
[2] = dose: 100.0 mg/kg/injection, schedule: Q01DX005 (ip), vehicle: saline with Tween-80
[3] = dose: 200.0 mg/kg/injection, schedule: Q01DX005 (ip), vehicle: saline with Tween-80
[4] = dose: 50.0 mg/kg/injection, schedule: Q01DX009 (ip), vehicle: saline with Tween-80
[5] = dose: 100.0 mg/kg/injection, schedule: Q01DX009 (ip), vehicle: saline with Tween-80
[6] = dose: 200.0 mg/kg/injection, schedule: Q01DX009 (ip), vehicle: saline with Tween-80
[7] = dose: 50.0 mg/kg/injection, schedule: Q01DX005 (ip), vehicle: saline
[8] = dose: 100.0 mg/kg/injection, schedule: Q01DX005 (ip), vehicle: saline
[9] = dose: 200.0 mg/kg/injection, schedule: Q01DX005 (ip), vehicle: saline
[10] = dose: 60.0 mg/kg/injection, schedule: Q01DX005 (ip), vehicle: saline with Tween-80
[11] = dose: 120.0 mg/kg/injection, schedule: Q01DX005 (ip), vehicle: saline with Tween-80
[12] = dose: 240.0 mg/kg/injection, schedule: Q01DX005 (ip), vehicle: saline with Tween-80
[13] = dose: 6.25 mg/kg/injection, schedule: Q01DX005 (ip), vehicle: saline with Tween-80
[14] = dose: 12.5 mg/kg/injection, schedule: Q01DX005 (ip), vehicle: saline with Tween-80
[15] = dose: 25.0 mg/kg/injection, schedule: Q01DX005 (ip), vehicle: saline with Tween-80
[16] = dose: 25.0 mg/kg/injection, schedule: Q01DX009 (ip), vehicle: saline with Tween-80

## O=C1C=C(c2ccccc2)S(=O)(=O)c2cc(O)ccc21
[1]
  T/C: 119 % of control
[2]
  T/C: 114 % of control
[3]
  T/C: 110 % of control

## ClCC1CSC2(CCCCC2)O1 (stereo not drawn)
[4]
  T/C: 104 % of control and 115 % of control
[5]
  T/C: 100 % of control and 119 % of control
[6]
  T/C: 97 % of control

## C[C@H]1C(=O)N(C)C(=O)[C@@H]1N
[7]
  T/C: 97 % of control
[8]
  T/C: 97 % of control
[9]
  T/C: 95 % of control

## C=CCNCCN1CCN(CCCN2c3ccccc3Sc3ccc(C(F)(F)F)cc32)CC1
dose: 25.0 mg/kg/injection, schedule: Q04DX003 (ip), vehicle: saline
  T/C: 91 % of control
dose: 50.0 mg/kg/injection, schedule: Q04DX003 (ip), vehicle: saline
  T/C: 119 % of control and 97 % of control

## O=C(O)CSCC(=O)Nc1cc(C(F)(F)F)ccc1Cl
[10]
  T/C: 95 % of control
[11]
  T/C: 100 % of control
[12]
  T/C: 96 % of control

## NC(CCC(=O)NCCCC(=O)O)C(=O)O (stereo not drawn)
dose: 100.0 mg/kg/injection, schedule: Q04DX002 (ip), vehicle: saline
  T/C: 105 % of control
dose: 200.0 mg/kg/injection, schedule: Q04DX002 (ip), vehicle: saline
  T/C: 113 % of control
dose: 400.0 mg/kg/injection, schedule: Q04DX002 (ip), vehicle: saline
  T/C: 108 % of control

## Cc1ccccc1N1CC2CC3C=CC2(C1)O3 (stereo not drawn)
[10]
  T/C: 104 % of control
[11]
  T/C: 97 % of control
[12]
  T/C: 97 % of control

## CCOCC1COc2c(cc3[nH]cc(C(=O)OCC)c(=O)c3c2Cl)O1 (stereo not drawn)
[4]
  T/C: 111 % of control
[5]
  T/C: 110 % of control
[6]
  T/C: 101 % of control

## COc1cc(OC)c(/C=C/c2c3ccccc3cc[n+]2C)c(OC)c1
dose: 0.39 mg/kg/injection, schedule: Q01DX009 (ip), vehicle: saline with Tween-80
  T/C: 108 % of control
dose: 0.78 mg/kg/injection, schedule: Q01DX009 (ip), vehicle: saline with Tween-80
  T/C: 121 % of control
dose: 3.13 mg/kg/injection, schedule: Q01DX009 (ip), vehicle: saline with Tween-80
  T/C: 152 % of control

## NC(=O)c1[nH]c(=O)[nH]c(=O)c1CSc1ccc(Cl)cc1
[13]
  T/C: 99 % of control
[14]
  T/C: 97 % of control
[15]
  T/C: 107 % of control
[1]
  T/C: 109 % of control
[2]
  T/C: 111 % of control

## C=C(c1ccccc1)N1N=NC2CCOC21 (stereo not drawn)
[1]
  T/C: 105 % of control
[2]
  T/C: 99 % of control
[3]
  T/C: 100 % of control

## COc1ccc(C2C(C(=O)OCc3ccccc3)=C(C)NC(C)=C2C(=O)OCc2ccccc2)cc1
dose: 0.78 mg/kg/injection, schedule: Q01DX009 (ip), vehicle: distilled water + Tween-80
  T/C: 98 % of control
dose: 1.56 mg/kg/injection, schedule: Q01DX009 (ip), vehicle: distilled water + Tween-80
  T/C: 93 % of control
dose: 3.13 mg/kg/injection, schedule: Q01DX009 (ip), vehicle: distilled water + Tween-80
  T/C: 88 % of control and 93 % of control
dose: 6.25 mg/kg/injection, schedule: Q01DX009 (ip), vehicle: distilled water + Tween-80
  T/C: 92 % of control
dose: 12.5 mg/kg/injection, schedule: Q01DX009 (ip), vehicle: distilled water + Tween-80
  T/C: 87 % of control and 92 % of control
dose: 25.0 mg/kg/injection, schedule: Q01DX009 (ip), vehicle: distilled water + Tween-80
  T/C: 95 % of control

## CC1C2CCC3C(O)C2(CC(O)C2(O)C1CC(O)C2(C)C)CC3(C)O (stereo not drawn)
dose: 0.25 mg/kg/injection, schedule: Q01DX009 (ip), vehicle: Klucel (hydroxypropylcellulose) (HPC)
  T/C: 101 % of control
dose: 0.5 mg/kg/injection, schedule: Q01DX009 (ip), vehicle: Klucel (hydroxypropylcellulose) (HPC)
  T/C: 93 % of control
dose: 1.0 mg/kg/injection, schedule: Q01DX009 (ip), vehicle: Klucel (hydroxypropylcellulose) (HPC)
  T/C: 95 % of control

## CCCCN(CC(O)CNc1cc(OC)cc2cccnc12)C(C)CC (stereo not drawn)
[13]
  T/C: 95 % of control
[14]
  T/C: 91 % of control
[15]
  T/C: 100 % of control
dose: 25.0 mg/kg/injection, schedule: Q01DX005 (ip), vehicle: saline
  T/C: 92 % of control

## Oc1cccc2ccccc12
dose: 25.0 mg/kg/injection, schedule: Q01DX005 (ip), vehicle: water
  T/C: 100 % of control
dose: 50.0 mg/kg/injection, schedule: Q01DX005 (ip), vehicle: water
  T/C: 101 % of control
dose: 100.0 mg/kg/injection, schedule: Q01DX005 (ip), vehicle: water
  T/C: 111 % of control
dose: 200.0 mg/kg/injection, schedule: Q01DX005 (ip), vehicle: water
  T/C: 104 % of control
dose: 400.0 mg/kg/injection, schedule: Q01DX005 (ip), vehicle: water
  T/C: 93 % of control

## N#C/C(=N\Nc1ccc(Cl)cc1)C(=O)C1CC1
dose: 15.0 mg/kg/injection, schedule: Q01DX005 (ip), vehicle: Klucel (hydroxypropylcellulose) (HPC)
  T/C: 105 % of control
dose: 30.0 mg/kg/injection, schedule: Q01DX005 (ip), vehicle: Klucel (hydroxypropylcellulose) (HPC)
  T/C: 98 % of control
dose: 60.0 mg/kg/injection, schedule: Q01DX005 (ip), vehicle: Klucel (hydroxypropylcellulose) (HPC)
  T/C: 99 % of control and 91 % of control

## C1=C[N]2c3c4c(ccc3=C1)=CC=C[N]4[Ga]2[c]1ccccc1
dose: 6.25 mg/kg/injection, schedule: Q01DX009 (ip), vehicle: Klucel (hydroxypropylcellulose) (HPC)
  T/C: 103 % of control
dose: 12.5 mg/kg/injection, schedule: Q01DX009 (ip), vehicle: Klucel (hydroxypropylcellulose) (HPC)
  T/C: 106 % of control
dose: 25.0 mg/kg/injection, schedule: Q01DX009 (ip), vehicle: Klucel (hydroxypropylcellulose) (HPC)
  T/C: 118 % of control

## CCOC(=O)N1C(=O)C=CC1=O
dose: 18.75 mg/kg/injection, schedule: Q01DX009 (ip), vehicle: saline with Tween-80
  T/C: 106 % of control
dose: 37.5 mg/kg/injection, schedule: Q01DX009 (ip), vehicle: saline with Tween-80
  T/C: 104 % of control
dose: 75.0 mg/kg/injection, schedule: Q01DX009 (ip), vehicle: saline with Tween-80
  T/C: 105 % of control and 91 % of control
dose: 150.0 mg/kg/injection, schedule: Q01DX009 (ip), vehicle: saline with Tween-80
  T/C: 113 % of control

## O=S(=O)(OCCCl)c1c(Cl)c(Cl)c(Cl)c(Cl)c1Cl
[14]
  T/C: 95 % of control
[15]
  T/C: 92 % of control
[1]
  T/C: 92 % of control and 93 % of control
[2]
  T/C: 96 % of control

## C=C(CO)C(=O)OC1CC(=C)C2CC(O)C(=C)C2C2OC(=O)C(=C)C12 (stereo not drawn)
dose: 100.0 mg/kg/injection, schedule: Q01DX001 (ip), vehicle: saline
  T/C: 113 % of control
dose: 200.0 mg/kg/injection, schedule: Q01DX001 (ip), vehicle: saline
  T/C: 99 % of control
dose: 400.0 mg/kg/injection, schedule: Q01DX001 (ip), vehicle: saline
  T/C: 104 % of control

## CCN(CC)CCOC1CC(C)CCC1C(C)C (stereo not drawn)
[7]
  T/C: 111 % of control
[8]
  T/C: 100 % of control
[9]
  T/C: 100 % of control

## O=C(Nc1ccc(Cl)cc1)OCCSc1nc2ccccc2s1
[4]
  T/C: 102 % of control
[5]
  T/C: 105 % of control
[6]
  T/C: 93 % of control

## CC1=NN(C2=NS(=O)(=O)c3ccccc3N2C)C(=O)C1
[10]
  T/C: 86 % of control
[11]
  T/C: 90 % of control
[12]
  T/C: 90 % of control

## O=C(O)c1ccc(Cn2ccc(=O)[nH]c2=O)cc1
dose: 100.0 mg/kg/injection, schedule: Q01DX001 (ip), vehicle: saline with Tween-80
  T/C: 100 % of control
dose: 200.0 mg/kg/injection, schedule: Q01DX001 (ip), vehicle: saline with Tween-80
  T/C: 100 % of control
dose: 400.0 mg/kg/injection, schedule: Q01DX001 (ip), vehicle: saline with Tween-80
  T/C: 100 % of control

## COC(SC)(SC)c1cc(-c2c(Cl)cccc2Cl)no1
[10]
  T/C: 101 % of control
[11]
  T/C: 101 % of control
[12]
  T/C: 103 % of control

## CCCCOC1OCN(C)CC1(C)C (stereo not drawn)
[16]
  T/C: 98 % of control
[4]
  T/C: 114 % of control

## COc1ccc(OC)c(NC2=C(Cl)C(=O)C(Nc3cc(OC)ccc3OC)=C(Cl)C2=O)c1
dose: 12.5 mg/kg/injection, schedule: Q01DX009 (ip), vehicle: saline with Tween-80
  T/C: 98 % of control
[16]
  T/C: 97 % of control
[4]
  T/C: 90 % of control
[5]
  T/C: 87 % of control
[6]
  T/C: 91 % of control

## Cc1cc(N2CCOCC2)n2c(nc3ccccc32)c1C#N
[10]
  T/C: 96 % of control
[11]
  T/C: 100 % of control
